Patent US10681909B2, “Herbicidal triazoles” (FMC Corporation, priority 2014, dated 2020)

Assays:
[1] = tested on: wheat; test: Test A postemergence; format: in vivo, Triticum aestivum; conditions: Triticum aestivum, post-emergence, 240 h, 0 to 100 scale (0 no effect, 100 complete control), approx. 10 d, read-out: Plant response rating, Wheat; for plant injury at 125 g/ha: 125 g ai/ha; for plant injury at 500 g/ha: 500 g ai/ha
Method in brief: (§1)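 Test chemicals, formulated in a surfactant-containing non-phytotoxic solvent mixture, are applied either as a directed soil spray to newly planted seeds or as a postemergence application to plants at the one- to two-leaf stage (2–10 cm). All plants grow in a loam soil and sand blend.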

[2] = tested on: pigweed; test: Test A postemergence; format: in vivo, Amaranthus retroflexus; conditions: Amaranthus retroflexus, post-emergence, 240 h, 0 to 100 scale (0 no effect, 100 complete control), approx. 10 d, read-out: Plant response rating, Pigweed; for pest or weed control at 125 g/ha: 125 g ai/ha; for pest or weed control at 500 g/ha: 500 g ai/ha
Method in brief: as §1

[3] = tested on: barnyardgrass; test: Test A postemergence; format: in vivo, Echinochloa crus-galli; conditions: Echinochloa crus-galli, post-emergence, 240 h, 0 to 100 scale (0 no effect, 100 complete control), approx. 10 d, read-out: Plant response rating, Barnyardgrass; for pest or weed control at 125 g/ha: 125 g ai/ha; for pest or weed control at 500 g/ha: 500 g ai/ha
Method in brief: as §1

[4] = tested on: sedge, umbrella; test: Test B flooded paddy test; format: in vivo, Cyperus difformis; conditions: Cyperus difformis, 360 h, 125 g ai/ha, applied to paddy water at 2-leaf stage, visual rating after 13 to 15 d, scale 0 (no effect) to 100 (complete control), read-out: Plant response rating, Sedge, Umbrella, Flood
Method in brief: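 Pots were flooded to 3 cm above the soil at treatment, and compounds were applied directly into the paddy water. That depth was held throughout. After 13 to 15 d in a greenhouse, plants were rated visually against untreated controls.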

[5] = tested on: foxtail, giant; test: Test A postemergence; format: in vivo, Setaria faberii; conditions: Setaria faberi, post-emergence, 240 h, 0 to 100 scale (0 no effect, 100 complete control), approx. 10 d, read-out: Plant response rating, Foxtail, Giant; for pest or weed control at 125 g/ha: 125 g ai/ha; for pest or weed control at 500 g/ha: 500 g ai/ha
Method in brief: as §1

[6] = tested on: foxtail, giant; test: Test A preemergence; format: in vivo, Setaria faberii; conditions: Setaria faberi, pre-emergence, 240 h, 0 to 100 scale (0 no effect, 100 complete control), read-out: Plant response rating, Foxtail, Giant; for pest or weed control at 125 g/ha: 125 g ai/ha; for pest or weed control at 500 g/ha: 500 g ai/ha, approx. 10 d
Method in brief: as §1

[7] = tested on: barnyardgrass; test: Test A preemergence; format: in vivo, Echinochloa crus-galli; conditions: Echinochloa crus-galli, pre-emergence, 240 h, 0 to 100 scale (0 no effect, 100 complete control), read-out: Plant response rating, Barnyardgrass; for pest or weed control at 125 g/ha: 125 g ai/ha; for pest or weed control at 500 g/ha: 500 g ai/ha, approx. 10 d
Method in brief: as §1

Row | SMILES | plant injury at 125 g/ha [1] | plant injury at 500 g/ha [1] | pest or weed control at 125 g/ha [2] | pest or weed control at 500 g/ha [2] | pest or weed control at 125 g/ha [3] | pest or weed control at 500 g/ha [3] | pest or weed control at 125 g/ha [4] | pest or weed control at 125 g/ha [5] | pest or weed control at 500 g/ha [5] | pest or weed control at 125 g/ha [6] | pest or weed control at 500 g/ha [6] | pest or weed control at 125 g/ha [7] | pest or weed control at 500 g/ha [7]
1 | CCn1nc(-c2ccc(F)cc2)nc1C(O)c1ccnc(C(F)(F)F)c1 (stereo not drawn) [Compound 15, α-[1-Ethyl-3-(4-fluorophenyl)-1H-1,2,4-triazol-5-yl]-2-(trifluoromethyl)-4-pyridinemethanol] | 0% | 0% | 10% | 70% | 0% | 10% | 0% | 0% | 10% | 0% | 20% | 0% | 0%
2 | CCCn1nc(-c2ccc(F)cc2)nc1Cc1ccnc(C(F)(F)F)c1 [Compound 17, 4-[[3-(4-fluorophenyl)-1-propyl-1H-1,2,4-triazol-5-yl]methyl]-2-(trifluoromethyl)pyridine] | 60% | 80% | 100% | 100% | 70% | 90% | 80% | 90% | 90% | 100% | 100% | 50% | 100%
3 | CCn1nc(-c2ccc(F)cc2)nc1C(=O)c1ccnc(C(F)(F)F)c1 [Compound 19, [1-ethyl-3-(4-fluorophenyl)-1H-1,2,4-triazol-5-yl][2-(trifluoromethyl)-4-pyridinyl]methanone] | 0% | 0% | 0% | 30% | 0% | 0% | 0% | 0% | 0% | 0% | 50% | 0% | 0%
4 | CS(=O)(=O)c1nc(-c2ccc(F)cc2)nn1Cc1ccnc(C(F)(F)F)c1 [Compound 29, 4-[[3-(4-fluorophenyl)-5-(methylsulfonyl)-1H-1,2,4-triazole-1-yl]methyl]-2-(trifluoromethyl)pyridine] | 0% | 0% | 0% | 0% | 0% | 0% | 0% | 0% | 0% | 0% | 0% | 0% | 0%
